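Exposure lasted 48 hours, with cells grown in 96-well plates and compounds tested at five concentrations. Here, GI50 denotes the concentration required for 50% inhibition of growth.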 Calls of active or inactive are those of the source. No stated cut-off is given here; in the data, active = GI50 up to about 1.1 µM and inactive = higher.
Assays:
Assay in all cases: NCI-60 cell line screen, 48 h
A549 = system: A549
ACHN = system: ACHN
HCC 2998 = system: HCC 2998
HCT-116 = system: HCT-116
HL-60 = system: HL-60
HT-29 = system: HT-29
KM12 = system: KM12
LOX IMVI = system: LOX IMVI
Malme-3M = system: Malme-3M
OVCAR-3 = system: OVCAR-3
RPMI-8226 = system: RPMI-8226
SF-295 = system: SF-295
SF-539 = system: SF-539
SK-MEL-28 = system: SK-MEL-28
SK-MEL-2 = system: SK-MEL-2
SK-MEL-5 = system: SK-MEL-5
SN12C = system: SN12C
OVCAR-4 = system: OVCAR-4

Measured: GI50

Cc1nc2sccn2c1C(=O)NNC(N)=S
inactive: A549 > 100 µM | ACHN > 100 µM | HCC 2998 > 100 µM | HCT-116 > 100 µM | HL-60 > 100 µM | HT-29 > 100 µM | KM12 > 100 µM | LOX IMVI > 100 µM | Malme-3M > 100 µM | OVCAR-3 > 100 µM | RPMI-8226 > 100 µM | SF-295 > 100 µM | SF-539 > 100 µM | SK-MEL-28 > 100 µM | SK-MEL-2 > 100 µM | SK-MEL-5 > 100 µM | SN12C > 100 µM

CCc1cc(CCC(=O)Nc2ccccc2[N+](=O)[O-])nc(S)n1
inactive: A549 > 100 µM | ACHN > 100 µM | HCT-116 > 100 µM | HL-60 > 100 µM | HT-29 > 100 µM | KM12 > 100 µM | LOX IMVI > 100 µM | OVCAR-3 > 100 µM | SF-295 > 100 µM | SF-539 > 100 µM | SK-MEL-28 > 100 µM | SK-MEL-2 > 100 µM

CCOc1ncnc2ccc(Cl)c(I)c12
inactive: A549 75.7 µM | ACHN 33.6 µM | HCC 2998 > 100 µM | HCT-116 82.2 µM | HL-60 38.8 µM | HT-29 > 100 µM | KM12 91 µM | LOX IMVI 49.4 µM | Malme-3M > 100 µM | OVCAR-3 > 100 µM | OVCAR-4 56.6 µM | RPMI-8226 29.5 µM | SF-295 > 100 µM | SK-MEL-28 > 100 µM | SK-MEL-2 53.1 µM | SK-MEL-5 59.8 µM | SN12C 67.5 µM

Clc1ccccc1C1SCc2nc3ccccc3n21 (stereo unspecified)
inactive: A549 32.6 µM | ACHN 22.1 µM | HCT-116 18.7 µM | HL-60 13 µM | HT-29 29.4 µM | KM12 30.8 µM | LOX IMVI 26.4 µM | Malme-3M 17.7 µM | OVCAR-3 14.1 µM | OVCAR-4 18 µM | RPMI-8226 20 µM | SF-295 28.8 µM | SF-539 33.5 µM | SK-MEL-28 28.5 µM | SK-MEL-2 22 µM | SK-MEL-5 17.9 µM | SN12C 18 µM

C=C(COC(C)=O)CC(/C=C(\C)CCC=C(C)C)OC(C)=O (stereo unspecified)
inactive: A549 > 100 µM | ACHN > 100 µM | HCC 2998 > 100 µM | HCT-116 > 100 µM | HL-60 74.5 µM | HT-29 > 100 µM | KM12 > 100 µM | LOX IMVI 32.2 µM | OVCAR-3 > 100 µM | OVCAR-4 > 100 µM | RPMI-8226 > 10 µM | SF-295 > 100 µM | SF-539 > 100 µM | SK-MEL-28 > 100 µM | SK-MEL-2 > 100 µM | SK-MEL-5 > 100 µM | SN12C > 100 µM

CCOC(=N)CC(=O)c1ccccc1
inactive: A549 > 100 µM | ACHN > 100 µM | HCC 2998 > 100 µM | HCT-116 > 100 µM | HL-60 > 100 µM | HT-29 > 100 µM | KM12 > 100 µM | LOX IMVI > 100 µM | Malme-3M > 100 µM | OVCAR-3 > 100 µM | OVCAR-4 > 100 µM | SF-295 > 100 µM | SF-539 > 100 µM | SK-MEL-28 > 100 µM | SK-MEL-2 > 100 µM | SK-MEL-5 > 100 µM | SN12C > 100 µM

COC(=O)C(C(=O)C(=O)NC1=C(Cl)C(=O)c2ccccc2C1=O)c1csc(-n2nc(-c3ccccc3)cc2-c2ccccc2)n1 (stereo unspecified)
inactive: A549 > 100 µM | ACHN > 100 µM | HCC 2998 > 100 µM | HCT-116 > 100 µM | HL-60 > 100 µM | HT-29 20.7 µM | KM12 > 100 µM | LOX IMVI > 100 µM | Malme-3M 19.1 µM | OVCAR-3 > 100 µM | OVCAR-4 > 100 µM | RPMI-8226 > 100 µM | SF-295 > 100 µM | SN12C > 100 µM

CCCCCCC(C)OC(=O)/C=C(\CC(=O)OC(C)CCCCCC)C(=O)OC(C)CCCCCC (stereo unspecified)
inactive: A549 > 100 µM | ACHN > 100 µM | HCC 2998 > 100 µM | HCT-116 > 100 µM | HL-60 > 100 µM | HT-29 > 100 µM | LOX IMVI > 100 µM | Malme-3M > 100 µM | OVCAR-3 > 100 µM | OVCAR-4 > 100 µM | RPMI-8226 > 100 µM | SF-295 > 100 µM | SF-539 > 100 µM | SK-MEL-28 > 100 µM | SK-MEL-2 > 100 µM | SK-MEL-5 > 100 µM | SN12C > 100 µM

O=C(CCn1[nH]c(=O)c(Cl)c(Cl)c1=O)NO
inactive: A549 > 100 µM | ACHN > 100 µM | HCC 2998 > 100 µM | HL-60 > 100 µM | HT-29 > 100 µM | KM12 > 100 µM | LOX IMVI > 100 µM | Malme-3M > 100 µM | OVCAR-3 > 100 µM | OVCAR-4 > 100 µM | RPMI-8226 > 100 µM | SF-295 > 100 µM | SF-539 > 100 µM | SK-MEL-28 > 100 µM | SK-MEL-2 > 100 µM | SK-MEL-5 > 100 µM | SN12C > 100 µM

COC12OCCN(CCO)C1=CC(=O)C1(C)N=NC(C)C12 (stereo unspecified)
inactive: A549 > 100 µM | ACHN > 100 µM | HCC 2998 > 100 µM | HCT-116 > 100 µM | HT-29 > 100 µM | KM12 > 100 µM | LOX IMVI > 100 µM | Malme-3M > 100 µM | OVCAR-3 > 100 µM | RPMI-8226 > 100 µM | SF-295 > 100 µM | SF-539 > 100 µM | SK-MEL-28 > 100 µM | SK-MEL-5 > 100 µM | SN12C > 100 µM

COc1ccc2nc(NC(=O)C(=O)CC(=O)c3ccc(Cl)cc3)sc2c1
inactive: A549 67.1 µM | ACHN > 100 µM | HCC 2998 56.9 µM | HCT-116 > 100 µM | HL-60 > 100 µM | HT-29 > 100 µM | KM12 35.1 µM | Malme-3M > 100 µM | OVCAR-3 > 100 µM | OVCAR-4 20.9 µM | SF-295 56.9 µM | SF-539 17.3 µM | SK-MEL-28 > 100 µM | SK-MEL-2 > 100 µM | SK-MEL-5 > 100 µM | SN12C > 100 µM

CSCC1CC(c2ccc(Cl)cc2)=NO1 (stereo unspecified)
inactive: A549 > 100 µM | ACHN > 100 µM | HCC 2998 > 100 µM | HCT-116 > 100 µM | HL-60 > 100 µM | HT-29 > 100 µM | KM12 > 100 µM | Malme-3M > 100 µM | OVCAR-3 > 100 µM | OVCAR-4 > 100 µM | RPMI-8226 > 100 µM | SF-295 > 100 µM | SF-539 > 100 µM | SK-MEL-28 > 100 µM | SK-MEL-2 > 100 µM | SK-MEL-5 > 100 µM | SN12C > 100 µM

CCCCCCCCCCCCC(Br)C(=O)NCC(N)=O (stereo unspecified)
inactive: A549 15.6 µM | ACHN 15 µM | HCC 2998 16.1 µM | HCT-116 1.83 µM | HL-60 4.57 µM | HT-29 15.8 µM | KM12 14.2 µM | LOX IMVI 12.4 µM | Malme-3M 13.2 µM | OVCAR-3 15 µM | OVCAR-4 3.55 µM | SF-295 14.3 µM | SF-539 14.4 µM | SK-MEL-28 15.2 µM | SK-MEL-2 11.7 µM | SK-MEL-5 4.57 µM | SN12C 1.73 µM

O=c1oc2c3ccc4ccccc4c3n(CCN3CCOCC3)c2c2ccccc12
inactive: A549 5.42 µM | ACHN 5.6 µM | HCC 2998 > 100 µM | HCT-116 > 100 µM | HL-60 87.9 µM | HT-29 27.4 µM | KM12 > 100 µM | LOX IMVI 4.06 µM | Malme-3M > 100 µM | OVCAR-3 > 100 µM | OVCAR-4 > 100 µM | RPMI-8226 46.5 µM | SF-295 6.38 µM | SF-539 3.76 µM | SK-MEL-28 > 100 µM

COc1ccc(/N=N/c2c(-c3ccccc3)nn(C(=O)CC(=O)Nc3ccccc3Cl)c2-c2ccccc2)cc1
inactive: A549 > 100 µM | ACHN > 100 µM | HCC 2998 > 100 µM | HCT-116 > 100 µM | HL-60 22.6 µM | HT-29 47.1 µM | KM12 87.1 µM | LOX IMVI > 100 µM | Malme-3M > 100 µM | OVCAR-3 36.9 µM | OVCAR-4 57 µM | SF-295 > 100 µM | SF-539 > 100 µM | SK-MEL-28 > 100 µM | SK-MEL-5 > 100 µM | SN12C > 100 µM

O=C1Nc2nc3ccccc3n2N=C2CCCC12 (stereo unspecified)
inactive: A549 > 100 µM | ACHN > 100 µM | HCC 2998 > 100 µM | HCT-116 > 100 µM | HT-29 > 100 µM | KM12 > 100 µM | LOX IMVI > 100 µM | Malme-3M > 100 µM | OVCAR-3 > 100 µM | OVCAR-4 > 100 µM | RPMI-8226 > 100 µM | SF-295 > 100 µM | SF-539 > 100 µM | SK-MEL-28 > 100 µM | SK-MEL-2 > 100 µM | SK-MEL-5 > 100 µM | SN12C > 100 µM

COc1ccc(NC(=O)c2cc(OC)cc(OC)c2)cc1
inactive: A549 12.1 µM | ACHN 57.4 µM | HCC 2998 23 µM | HCT-116 8.41 µM | HL-60 6.98 µM | HT-29 4.49 µM | KM12 4.49 µM | LOX IMVI 17.6 µM | Malme-3M 36.6 µM | OVCAR-3 12.1 µM | OVCAR-4 > 100 µM | RPMI-8226 18 µM | SF-295 17.8 µM | SF-539 25.1 µM | SK-MEL-28 45.7 µM | SK-MEL-2 25.9 µM | SK-MEL-5 9.38 µM | SN12C 67 µM

— ChEMBL document CHEMBL1201862, “PubChem BioAssay data set” (2004)
